# Experimental data published in patent publication US9399631B2, “Polyphenol proteasome inhibitors, synthesis, and methods of use” (UNIVERSITY OF SOUTH FLORIDA, priority 2003, dated 2016).
# Assays:
# [1] = tested on: prokaryotic 20S proteasome; assay: Dialysis assay for irreversible inhibition, prokaryotic 20S proteasome; format: biochemical, Methanosarcina thermophile
# Protocol: Materials. Highly purified tea polyphenols (−)-EGCG (>95%), (−)-GCG (>98%), (−)-ECG (>98%), (−)-CG (>98%), fetal calf serum, propidium iodide, 3-[4,5-dimethylthiazol-2-yl]-2,5-diphenyltetrazolium bromide (MTT), RNase A, and DMSO were purchased from Sigma (St. Louis, Mo.). (+)-EGCG, benzyl-protected-(+)-EGCG, (+)-GCG, (−)-EGCG-amide, and (+)-EGCG-amide were prepared by enantioselective synthesis (see below). Purified 20S eukaryotic proteasome from rabbit was purchased from BOSTON BIOCHEM (Cambridge, Mass.). Purified 20S prokaryotic proteasome (Methanosarcina thermophile, Recombinant, E. coli) was purchased from CALBIOCHEM (La Jolla, Calif.). Fluorogenic peptide substrates Suc-Leu-Leu-Val-Tyr-AMC (for the proteasomal chymotrypsin-like activity) was obtained from Calbiochem (La Jolla, Calif.). RPMI 1640 medium, Dulbecco's modified Eagle's medium, MEM non-essential amino acids solution, MEM-sodium pyruvate solution, penicillin, and streptomycin were from INVITROGEN (Carlsbad, Calif.). Monoclonal antibody to p27^Kip was purchased from PHARMINGEN (San Diego, Calif.); polyclonal antibodies to IκB-α, Bax and actin, and monoclonal antibody to ubiquitin were from SANTA CRUZ Biotechnology Inc. (Santa Cruz, Calif.).
# Assays for irreversible inhibition. To measure the effect of dialysis on (−)-EGCG-mediated proteasome inhibition, 20S prokaryotic proteasome (2 μg) was incubated with 10 μM (−)-EGCG or the control solvent (H2O) in 50 mM Tris-HCl, pH 7.5 for 1 hour. This was then incubated at 4° C. either without or with dialysis overnight using a 10,000 MWCO Pierce Slide-A-Lyzer Dialysis Cassette (Rockford, Ill.) in a rotating bath of 50 mM Tris-HCl, pH 7.5. The proteasomal chymotrypsin-like activity was then assayed as previously described. As a control, an EGCG solution (without purified 20S proteasome) was dialyzed overnight, followed by measurement of the effects on inhibition of the proteasome activity.
# To investigate the nature of (−)-EGCG-mediated proteasome inhibition, a dialysis experiment was performed. […]
# MCF-7 cells = assay: Proteasome inhibition / p27 accumulation in MCF-7 cells; format: cell-based, human
# LNCaP cells = assay: Cell-free caspase-3 activity assay, LNCaP cells; format: cell-based, human; settings: 10 μM, normalized to 0 hours
# Protocol: To examine whether (+)-EGCG could induce apoptosis only in LNCaP, but not DU-145, cells, both cell lines were treated with 10 μM (+)-EGCG for 0, 24, 48 or 72 hours, followed by performance of cell-free caspase-3 activity assay. Cells were harvested at each sequential time-point and activity was determined by incubating whole cell extracts with caspase-3 substrate and measuring free AMCs (FIG. 20C). All the time-points were normalized to 0 hours. (+)-EGCG activated caspase-3 in LNCaP cells in a time-dependent manner: by 2.5-, 3.5- and 6-fold at 24, 48 and 72 hours, respectively (FIG. 20C). In contrast, little caspase-3 activity was detected in (+)-EGCG-treated in DU145 cells: only ˜2-fold induction at 72 hours (FIG. 20C). In the same experiment, (−)-EGCG at 10 μM was used as a control. […] Therefore, the abilities of (+)-EGCG to activate apoptotic program in these prostate cancer cell lines are correlated well to their abilities to accumulate Bax protein levels to a critical high threshold (compare FIGS. 20C and 20D vs. 20B). Values are means of triplicate independent experiments and error bars denote standard deviations.
compound,measurement,setting,value
"O=C(O[C@@H]1Cc2c(O)cc(O)cc2O[C@@H]1c1cc(O)c(O)c(O)c1)c1cc(O)c(O)c(O)c1 [(−)-EGCG, (−)-epigallocatechin-3-gallate, reference compound]",inhibition of chymotrypsin-like activity,"[1]; 10 μM, 1 h pre-incubation, overnight dialysis",81%
same,inhibition of chymotrypsin-like activity,"[1]; 10 μM, absence of dialysis",85%
same,inhibition of chymotrypsin-like activity,[1]; compound dialyzed overnight before addition to proteasome (EGCG pre),no inhibition was observed
"O=C(N[C@@H]1Cc2c(O)cc(O)cc2O[C@@H]1c1cc(O)c(O)c(O)c1)c1cc(O)c(O)c(O)c1 [(−)-EGCG-amide, (−)-[2R,3R]-N-[5,7-Dihydroxy-2-(3,4,5-trihydroxyphenyl)-chroman-3-yl]-3,4,5-trihydroxybenzamide]",inhibition of proteasome activity / accumulation of p27,MCF-7 cells,able to inhibit the proteasome activity
"O=C(OC1Cc2c(O)cc(O)cc2OC1c1cc(O)c(O)c(O)c1)c1cc(O)c(O)c(O)c1 (single isomer, unassigned; (+)) [(+)-EGCG]",caspase-3 activation,LNCaP cells; 24 hours,2.5 fold
same,caspase-3 activation,LNCaP cells; 48 hours,3.5 fold
same,caspase-3 activation,LNCaP cells; 72 hours,6 fold
